Reference: ChEMBL document CHEMBL5715954, “Silencing c-Myc translation as a therapeutic strategy through targeting PI3Kδ and CK1ε in hematological malignancies” (Blood, 2017)

How the values were obtained:
Design in all cases: scale not given: the % may be the effect or the level left
[1] = biological target: T1, Dual specificity mitogen-activated protein kinase kinase 3 (Homo sapiens) (UniProt P46734); experiment: Inhibition of human MEK3 assessed as enzyme activity at 1 uM using p38a (K53A) as substrate preincubated for 20 mins followed by [gamma-33P]-ATP addition and measured after 120 mins by radiometric Hot-SpotSM Kinase assay relative to control
T1 sequence (whole entry): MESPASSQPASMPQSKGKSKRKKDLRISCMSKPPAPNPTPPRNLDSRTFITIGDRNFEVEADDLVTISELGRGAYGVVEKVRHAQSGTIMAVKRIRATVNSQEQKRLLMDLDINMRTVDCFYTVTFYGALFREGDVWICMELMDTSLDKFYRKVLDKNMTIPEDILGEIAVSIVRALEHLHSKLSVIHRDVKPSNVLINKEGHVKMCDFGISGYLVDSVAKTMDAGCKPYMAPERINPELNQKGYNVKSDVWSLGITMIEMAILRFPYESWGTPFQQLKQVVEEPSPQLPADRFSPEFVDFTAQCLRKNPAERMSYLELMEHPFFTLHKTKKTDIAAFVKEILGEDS

[2] = biological target: Tyrosine-protein kinase Yes (Homo sapiens) (UniProt P07947); experiment: Inhibition of human YES assessed as enzyme activity at 1 uM using poly[Glu:Tyr] (4:1) as substrate preincubated for 20 mins followed by [gamma-33P]-ATP addition and measured after 120 mins by radiometric Hot-SpotSM Kinase assay relative to control
Chain of Tyrosine-protein kinase Yes (Homo sapiens) (P07947 2-543 limits assumed): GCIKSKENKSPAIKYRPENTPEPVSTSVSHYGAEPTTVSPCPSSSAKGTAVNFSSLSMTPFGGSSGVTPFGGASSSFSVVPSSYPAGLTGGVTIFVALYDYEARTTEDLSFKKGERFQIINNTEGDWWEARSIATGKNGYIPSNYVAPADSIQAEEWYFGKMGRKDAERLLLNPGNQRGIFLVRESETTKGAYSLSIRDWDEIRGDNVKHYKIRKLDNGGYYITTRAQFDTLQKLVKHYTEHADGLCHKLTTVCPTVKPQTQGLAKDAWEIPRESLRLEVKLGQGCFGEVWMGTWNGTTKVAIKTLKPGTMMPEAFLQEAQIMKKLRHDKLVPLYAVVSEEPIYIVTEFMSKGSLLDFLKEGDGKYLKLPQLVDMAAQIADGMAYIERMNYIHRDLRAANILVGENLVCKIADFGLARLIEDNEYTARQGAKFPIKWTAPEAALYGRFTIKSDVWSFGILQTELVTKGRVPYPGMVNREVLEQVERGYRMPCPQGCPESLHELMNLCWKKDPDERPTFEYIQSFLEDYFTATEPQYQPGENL

[3] = biological target: PAS domain-containing serine/threonine-protein kinase (Homo sapiens) (UniProt Q96RG2); experiment: Inhibition of human PASK assessed as enzyme activity at 1 uM using KKLNRTLSFAEPG as substrate preincubated for 20 mins followed by [gamma-33P]-ATP addition and measured after 120 mins by radiometric Hot-SpotSM Kinase assay relative to control
[4] = biological target: T2, Myosin light chain kinase family member 4 (Homo sapiens) (UniProt Q86YV6); experiment: Inhibition of human MYLK4 assessed as enzyme activity at 1 uM using KKRPQRRYSNVF as substrate preincubated for 20 mins followed by [gamma-33P]-ATP addition and measured after 120 mins by radiometric Hot-SpotSM Kinase assay relative to control
T2 sequence (whole entry): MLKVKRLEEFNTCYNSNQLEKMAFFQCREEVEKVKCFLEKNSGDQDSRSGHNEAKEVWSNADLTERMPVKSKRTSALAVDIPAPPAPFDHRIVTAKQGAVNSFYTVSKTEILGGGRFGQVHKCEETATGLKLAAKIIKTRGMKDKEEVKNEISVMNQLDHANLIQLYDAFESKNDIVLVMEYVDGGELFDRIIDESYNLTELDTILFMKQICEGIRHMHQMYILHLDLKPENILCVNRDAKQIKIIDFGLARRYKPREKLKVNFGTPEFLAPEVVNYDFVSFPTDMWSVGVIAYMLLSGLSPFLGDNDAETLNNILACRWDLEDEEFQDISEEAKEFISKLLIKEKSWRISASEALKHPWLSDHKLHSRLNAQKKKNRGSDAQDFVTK

[5] = biological target: Maternal embryonic leucine zipper kinase (Homo sapiens) (UniProt Q14680); experiment: Inhibition of human MELK assessed as enzyme activity at 1 uM using KKLNRTLSFAEPG as substrate preincubated for 20 mins followed by [gamma-33P]-ATP addition and measured after 120 mins by radiometric Hot-SpotSM Kinase assay relative to control
Chain of Maternal embryonic leucine zipper kinase (Homo sapiens) (Q14680 whole entry, looked up): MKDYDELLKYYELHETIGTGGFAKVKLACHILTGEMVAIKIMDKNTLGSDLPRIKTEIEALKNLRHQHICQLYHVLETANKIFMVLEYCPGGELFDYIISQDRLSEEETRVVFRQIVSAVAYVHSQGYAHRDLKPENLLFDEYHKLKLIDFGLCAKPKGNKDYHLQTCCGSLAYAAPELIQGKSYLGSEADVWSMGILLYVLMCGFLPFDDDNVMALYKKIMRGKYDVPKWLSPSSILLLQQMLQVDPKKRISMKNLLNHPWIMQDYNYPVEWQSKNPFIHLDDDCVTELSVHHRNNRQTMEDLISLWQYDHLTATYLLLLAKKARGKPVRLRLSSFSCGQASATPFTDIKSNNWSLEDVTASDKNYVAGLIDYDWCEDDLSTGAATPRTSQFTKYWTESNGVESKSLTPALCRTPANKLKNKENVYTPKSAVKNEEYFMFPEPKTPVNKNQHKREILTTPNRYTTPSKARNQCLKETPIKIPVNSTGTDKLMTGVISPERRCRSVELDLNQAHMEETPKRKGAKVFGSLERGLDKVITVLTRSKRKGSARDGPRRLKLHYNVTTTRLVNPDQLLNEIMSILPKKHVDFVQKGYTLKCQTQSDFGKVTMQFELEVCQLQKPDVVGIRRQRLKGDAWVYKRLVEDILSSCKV

[6] = biological target: Serine/threonine-protein kinase PLK2 (Homo sapiens) (UniProt Q9NYY3); experiment: Inhibition of human PLK2 assessed as enzyme activity at 1 uM using casein as substrate preincubated for 20 mins followed by [gamma-33P]-ATP addition and measured after 120 mins by radiometric Hot-SpotSM Kinase assay relative to control
Chain of Serine/threonine-protein kinase PLK2 (Homo sapiens) (Q9NYY3 whole entry, looked up): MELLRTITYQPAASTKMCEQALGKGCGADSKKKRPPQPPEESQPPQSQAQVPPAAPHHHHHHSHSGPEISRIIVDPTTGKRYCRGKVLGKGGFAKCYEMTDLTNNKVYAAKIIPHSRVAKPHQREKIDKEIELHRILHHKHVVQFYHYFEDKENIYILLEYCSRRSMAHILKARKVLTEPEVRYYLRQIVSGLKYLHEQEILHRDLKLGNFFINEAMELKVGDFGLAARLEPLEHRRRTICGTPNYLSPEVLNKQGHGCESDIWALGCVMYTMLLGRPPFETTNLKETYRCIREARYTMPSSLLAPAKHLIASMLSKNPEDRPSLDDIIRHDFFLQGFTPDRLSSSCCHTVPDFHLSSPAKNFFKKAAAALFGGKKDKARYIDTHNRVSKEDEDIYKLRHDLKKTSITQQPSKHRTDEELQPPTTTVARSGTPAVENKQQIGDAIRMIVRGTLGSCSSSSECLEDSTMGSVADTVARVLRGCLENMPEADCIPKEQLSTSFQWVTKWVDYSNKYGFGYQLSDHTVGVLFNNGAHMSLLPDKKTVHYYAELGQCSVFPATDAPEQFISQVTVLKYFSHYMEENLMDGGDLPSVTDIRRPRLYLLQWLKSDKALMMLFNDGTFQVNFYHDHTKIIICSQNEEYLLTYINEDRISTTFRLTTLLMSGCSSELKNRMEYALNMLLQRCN

[7] = biological target: T3, Ephrin type-A receptor 3 (Homo sapiens) (UniProt P29320); experiment: Inhibition of human EPHA3 assessed as enzyme activity at 1 uM using poly[Glu:Tyr] (4:1) as substrate preincubated for 20 mins followed by [gamma-33P]-ATP addition and measured after 120 mins by radiometric Hot-SpotSM Kinase assay relative to control
T3 sequence (whole entry): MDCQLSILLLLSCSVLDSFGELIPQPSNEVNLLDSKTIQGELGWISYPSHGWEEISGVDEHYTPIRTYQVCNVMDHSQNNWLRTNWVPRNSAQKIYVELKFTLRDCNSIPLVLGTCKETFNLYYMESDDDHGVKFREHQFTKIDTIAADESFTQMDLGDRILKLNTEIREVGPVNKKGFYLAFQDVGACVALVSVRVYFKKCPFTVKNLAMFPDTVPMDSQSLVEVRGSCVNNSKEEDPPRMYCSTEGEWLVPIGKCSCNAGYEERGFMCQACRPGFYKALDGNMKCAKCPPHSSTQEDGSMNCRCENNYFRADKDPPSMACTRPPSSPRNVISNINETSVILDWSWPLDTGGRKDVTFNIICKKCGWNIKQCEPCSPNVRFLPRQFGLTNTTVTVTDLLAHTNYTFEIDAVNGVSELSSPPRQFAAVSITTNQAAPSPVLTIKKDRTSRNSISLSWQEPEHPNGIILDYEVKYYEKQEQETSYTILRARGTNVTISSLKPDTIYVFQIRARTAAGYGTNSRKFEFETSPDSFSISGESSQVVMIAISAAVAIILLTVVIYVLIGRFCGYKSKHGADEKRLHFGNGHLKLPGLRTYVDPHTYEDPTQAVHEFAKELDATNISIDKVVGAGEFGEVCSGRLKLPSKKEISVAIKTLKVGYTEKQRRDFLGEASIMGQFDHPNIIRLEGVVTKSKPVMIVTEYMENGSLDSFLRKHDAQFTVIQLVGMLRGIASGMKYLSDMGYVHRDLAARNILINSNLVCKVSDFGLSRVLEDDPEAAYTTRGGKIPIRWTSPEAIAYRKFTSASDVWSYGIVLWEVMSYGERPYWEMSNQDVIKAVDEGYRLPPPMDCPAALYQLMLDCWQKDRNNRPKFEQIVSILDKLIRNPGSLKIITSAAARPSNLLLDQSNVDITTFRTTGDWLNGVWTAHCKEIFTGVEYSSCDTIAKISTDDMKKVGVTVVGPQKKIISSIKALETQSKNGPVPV

[8] = biological target: Serine/threonine-protein kinase VRK2 (Homo sapiens) (UniProt Q86Y07); experiment: Inhibition of human VRK2 assessed as enzyme activity at 1 uM using casein as substrate preincubated for 20 mins followed by [gamma-33P]-ATP addition and measured after 120 mins by radiometric Hot-SpotSM Kinase assay relative to control
Chain of Serine/threonine-protein kinase VRK2 (Homo sapiens) (Q86Y07 whole entry): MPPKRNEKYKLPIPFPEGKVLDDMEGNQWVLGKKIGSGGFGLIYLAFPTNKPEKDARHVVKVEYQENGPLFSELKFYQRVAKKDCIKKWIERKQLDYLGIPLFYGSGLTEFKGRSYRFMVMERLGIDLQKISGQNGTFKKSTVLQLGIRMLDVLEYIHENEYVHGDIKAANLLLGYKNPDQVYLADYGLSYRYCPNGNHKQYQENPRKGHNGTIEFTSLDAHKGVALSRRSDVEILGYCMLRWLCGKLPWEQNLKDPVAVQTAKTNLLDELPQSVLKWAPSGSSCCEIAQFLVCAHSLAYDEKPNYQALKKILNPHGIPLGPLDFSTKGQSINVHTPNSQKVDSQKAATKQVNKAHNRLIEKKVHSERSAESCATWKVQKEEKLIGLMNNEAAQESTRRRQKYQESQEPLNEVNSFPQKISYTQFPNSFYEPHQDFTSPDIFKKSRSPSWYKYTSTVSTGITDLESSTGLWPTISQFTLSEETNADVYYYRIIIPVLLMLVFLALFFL

[9] = biological target: Serine/threonine-protein kinase PAK 4 (Homo sapiens) (UniProt O96013); experiment: Inhibition of human PAK4 assessed as enzyme activity at 1 uM using RRRLSFAEPG as substrate preincubated for 20 mins followed by [gamma-33P]-ATP addition and measured after 120 mins by radiometric Hot-SpotSM Kinase assay relative to control
Chain of Serine/threonine-protein kinase PAK 4 (Homo sapiens) (O96013 whole entry, looked up): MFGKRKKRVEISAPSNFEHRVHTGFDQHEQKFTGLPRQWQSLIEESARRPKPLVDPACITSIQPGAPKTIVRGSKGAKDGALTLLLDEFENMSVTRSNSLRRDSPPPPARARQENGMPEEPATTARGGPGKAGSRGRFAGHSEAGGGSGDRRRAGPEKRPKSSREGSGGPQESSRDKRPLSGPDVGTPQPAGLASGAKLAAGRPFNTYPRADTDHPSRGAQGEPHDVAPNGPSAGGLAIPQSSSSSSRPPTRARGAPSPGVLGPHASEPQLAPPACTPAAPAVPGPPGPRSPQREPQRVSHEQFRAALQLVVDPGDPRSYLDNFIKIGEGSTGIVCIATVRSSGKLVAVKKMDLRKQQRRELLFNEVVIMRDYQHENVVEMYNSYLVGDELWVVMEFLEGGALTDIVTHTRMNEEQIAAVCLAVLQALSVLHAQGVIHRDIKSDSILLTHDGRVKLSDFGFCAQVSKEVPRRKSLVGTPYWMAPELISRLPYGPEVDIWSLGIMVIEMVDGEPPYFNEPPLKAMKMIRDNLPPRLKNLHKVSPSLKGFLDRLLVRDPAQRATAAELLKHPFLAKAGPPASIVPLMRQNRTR

[10] = biological target: Serine/threonine-protein kinase N3 (Homo sapiens) (UniProt Q6P5Z2); experiment: Inhibition of human PKN3 assessed as enzyme activity at 1 uM using KKLNRTLSVA as substrate preincubated for 20 mins followed by [gamma-33P]-ATP addition and measured after 120 mins by radiometric Hot-SpotSM Kinase assay relative to control
Chain of Serine/threonine-protein kinase N3 (Homo sapiens) (Q6P5Z2 whole entry, looked up): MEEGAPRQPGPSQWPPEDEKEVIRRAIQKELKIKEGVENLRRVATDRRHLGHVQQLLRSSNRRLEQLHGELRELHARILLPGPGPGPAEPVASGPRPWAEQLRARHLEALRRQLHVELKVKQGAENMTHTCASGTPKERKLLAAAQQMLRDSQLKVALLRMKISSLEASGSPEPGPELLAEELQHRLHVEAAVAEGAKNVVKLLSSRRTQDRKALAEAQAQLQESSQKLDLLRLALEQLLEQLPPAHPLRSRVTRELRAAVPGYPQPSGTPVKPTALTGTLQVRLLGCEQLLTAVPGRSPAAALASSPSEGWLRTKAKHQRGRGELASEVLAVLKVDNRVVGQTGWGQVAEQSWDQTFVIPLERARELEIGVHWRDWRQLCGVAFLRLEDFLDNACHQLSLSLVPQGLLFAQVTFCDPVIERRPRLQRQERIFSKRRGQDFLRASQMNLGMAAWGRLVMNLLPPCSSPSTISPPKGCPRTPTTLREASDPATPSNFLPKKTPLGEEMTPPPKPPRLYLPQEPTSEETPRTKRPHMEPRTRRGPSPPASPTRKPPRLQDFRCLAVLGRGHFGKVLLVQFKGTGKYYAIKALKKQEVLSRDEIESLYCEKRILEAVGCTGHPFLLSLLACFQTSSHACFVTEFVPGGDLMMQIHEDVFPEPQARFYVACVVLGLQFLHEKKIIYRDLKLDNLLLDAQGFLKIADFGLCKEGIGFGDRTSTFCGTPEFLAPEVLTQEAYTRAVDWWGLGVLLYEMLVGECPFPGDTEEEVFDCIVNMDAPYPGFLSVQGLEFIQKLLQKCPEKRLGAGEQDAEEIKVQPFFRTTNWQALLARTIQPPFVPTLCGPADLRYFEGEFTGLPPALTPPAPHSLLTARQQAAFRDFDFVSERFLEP

Compound | Activity [1] | Activity [2] | Activity [3] | Activity [4] | Activity [5] | Activity [6] | Activity [7] | Activity [8] | Activity [9] | Activity [10]
C[C@H](Nc1ncnc2nc[nH]c12)c1cc2cccc(Cl)c2c(=O)n1-c1ccccc1 | 108% | 94.2% | 95.3% | 93% | 94.5% | 98.6% | 93.9% | 88.3% | 107% | 101%
CC[C@H](Nc1ncnc2[nH]cnc12)c1nc2cccc(F)c2c(=O)n1-c1ccccc1 | 108% | 93.1% | 99.6% | 90.9% | 93.6% | 102% | 93.4% | 98.3% | 95.9% | 97.8%
CC(C)Oc1ccc(-c2nn([C@@H](C)c3oc4ccc(F)cc4c(=O)c3-c3cccc(F)c3)c3ncnc(N)c23)cc1F [UMBRALISIB] | 105% | 93.5% | 98.7% | 92.3% | 105% | 99.8% | 92.9% | 87% | 99.1% | 93.5%
